The text below walks through data of publication PMC9305623, “Next generation GLP-1/GIP/glucagon triple agonists normalize body weight in obese mice” (Molecular Metabolism, 2022).

Assay [1] concerns the target T1, hGcg Receptor (Homo sapiens, UniProt P47871).
T1 construct: expressed in transfected cells; host or cells: baby hamster kidney (BHK) cells, stably transfected, with CRE-firefly luciferase reporter
The experiment in a line: Receptor activation: cAMP production by CRE-luciferase reporter in stably transfected BHK cells. It counts as cell-based. The settings on record: compared to the native ligand for the receptor. The method in brief:
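BHK cells stably expressing one human receptor plus a CRE-firefly luciferase reporter were stimulated 3 h at 37 °C in phenol-red-free DMEM with 1% ovalbumin and 0.1% Pluronic F-68.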
A general note: cAMP levels reflect the balance of adenylyl cyclase and phosphodiesterase activity.

The target of assay [2] is T2, mGLP-1 Receptor (Mus musculus, UniProt O35659).
T2 construct: expressed in transfected cells; host or cells: baby hamster kidney (BHK) cells, stably transfected, with CRE-firefly luciferase reporter
T2 sequence (O35659 22-463): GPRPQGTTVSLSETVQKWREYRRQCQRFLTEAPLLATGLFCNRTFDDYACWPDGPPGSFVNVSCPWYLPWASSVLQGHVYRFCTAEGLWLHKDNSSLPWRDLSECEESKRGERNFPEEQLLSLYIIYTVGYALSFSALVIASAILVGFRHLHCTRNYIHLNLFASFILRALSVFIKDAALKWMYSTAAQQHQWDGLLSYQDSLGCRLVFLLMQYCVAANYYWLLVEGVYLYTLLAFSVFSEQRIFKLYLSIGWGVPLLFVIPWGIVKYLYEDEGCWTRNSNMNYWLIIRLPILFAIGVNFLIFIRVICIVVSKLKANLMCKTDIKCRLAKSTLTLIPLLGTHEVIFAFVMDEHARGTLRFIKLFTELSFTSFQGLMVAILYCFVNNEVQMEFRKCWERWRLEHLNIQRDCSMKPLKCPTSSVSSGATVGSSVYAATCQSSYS
The assay is described as above. It counts as cell-based. The settings on record: relative to native ligand at mouse-derived receptor.
Experimental: (§1) Cyclic AMP (cAMP) production was assessed as a proxy for receptor activation using stably transfected baby hamster kidney (BHK) cell lines expressing the DNA for one individual receptor (GLP-1R, GIPR, GcgR; human- or mouse-specific sequence) and the DNA for the firefly luciferase reporter gene linked to the cAMP response element (CRE). The cells were kept in continuous culture at 37 °C and 5% CO2 in Dulbecco's Modified Eagle Medium (DMEM) supplemented with 10% heat-inactivated fetal bovine serum (HI-FBS), 300 μg/mL hygromycin, and 500 μg/mL G418; for cell lines expressing GIPR, the G418 concentration was lowered to 400 μg/mL. Cells were plated in a 96-well poly-D-lysine-coated plate at 5,000 cells per well in growth media and incubated overnight at 37 °C with 5% CO2. After the overnight incubation, the media was removed, the plate was washed once in Dulbecco's phosphase-buffered saline (DPBS), and 50 μL of assay buffer (DMEM without phenol red, 10 mM HEPES, 1x Glutamax, 1% ovalbumin, 0.1% Pluronic F-68) was added to each well. […] The assay plate was covered to protect reagent from light, shaken at 250 rpm at room temperature for 30 min, and read in a microtiter plate reader. EC50 values were calculated using Prism software (GraphPad) with the nonlinear regression log(agonist) vs. response. A minimum of two replicates were measured for each sample.

Assay [3] addresses T3, mGIP Receptor (Mus musculus, UniProt Q0P543).
T3 construct: expressed in transfected cells; host or cells: baby hamster kidney (BHK) cells, stably transfected, with CRE-firefly luciferase reporter
T3 sequence (Q0P543 19-460): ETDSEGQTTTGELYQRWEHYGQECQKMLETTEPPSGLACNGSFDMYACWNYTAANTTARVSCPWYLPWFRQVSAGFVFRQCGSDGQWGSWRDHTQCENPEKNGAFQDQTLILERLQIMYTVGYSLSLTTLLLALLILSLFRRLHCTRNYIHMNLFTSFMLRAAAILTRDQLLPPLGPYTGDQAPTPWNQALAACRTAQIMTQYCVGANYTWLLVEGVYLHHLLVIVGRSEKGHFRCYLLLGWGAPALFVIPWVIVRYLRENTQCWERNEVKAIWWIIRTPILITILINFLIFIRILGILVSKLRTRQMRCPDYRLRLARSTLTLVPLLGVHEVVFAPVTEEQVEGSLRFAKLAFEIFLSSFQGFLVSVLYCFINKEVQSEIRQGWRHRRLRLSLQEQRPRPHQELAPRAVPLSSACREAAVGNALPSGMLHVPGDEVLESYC
Described as above. It counts as cell-based. As to conditions: relative to native ligand at mouse-derived receptor.
Experimental: as §1

The target in assay [4] is T4, mGcg Receptor (Mus musculus, UniProt Q61606).
T4 construct: expressed in transfected cells; host or cells: baby hamster kidney (BHK) cells, stably transfected, with CRE-firefly luciferase reporter
The description is as above. It is filed as cell-based. The settings on record: relative to native ligand at mouse-derived receptor.
Experimental: as §1

Assay [5] deals with DIO mice. The experiment in a line: Pharmacodynamics in DIO mice: body weight, food intake, body composition. It counts as in vivo, mouse (male C57BL/6J). As for the experimental part:
Studies were approved by and performed according to the guidelines of the Institutional Animal Care and Use Committee of the University of Cincinnati. Male C57BL/6J mice (Jackson Laboratories) were housed 4 per cage, exposed to a controlled 12 h/12 h light–dark cycle at room temperature (22 °C), and provided ab libitum access to water and a 58% fat, high-sugar diet (D12331, Research Diets) for 12 weeks. Mice exceeding 50 g of body weight were considered diet-induced obese (DIO) and included in studies, where they were randomized and evenly distributed to test groups (n = 8 per group) according to body weight. Test compounds dissolved at a concentration of 0.5–2 μM in a vehicle (pH 7.4) containing 0.05% polysorbate-80, 50 mM sodium phosphate, and 70 mM sodium chloride were administered subcutaneously once daily, unless otherwise noted, during the light cycle for each day of treatment at a volume of 2–5 μL per gram of body weight as necessary to achieve the desired dose. Body weight and food intake were measured immediately prior to dosing each day. The percent change in body was calculated individually for each mouse based on initial body weight prior to the first injection. For intraperitoneal (i.p.) glucose tolerance tests (IPGTT), animals were fasted for 6 h prior to the test but had access to water. Fasted blood glucose levels were measured, then mice were injected with an i.p. glucose load of 2 g/kg from a 200 mg/mL aqueous glucose solution. Tail blood glucose levels were measured 0, 15, 30, 60, 90, and 120 min following the glucose load using a handheld glucometer (Freestyle, Abbott).

For assay [6], the system named is DIO mice. The experiment in a line: Energy expenditure in DIO mice (indirect calorimetry). It counts as in vivo, mouse. The settings on record: daily injections of 3 nmol/kg for 5 days inside an indirect calorimeter. As for the experimental part: Energy expenditure was assessed using a combined indirect calorimetry system (TSE Systems, Chesterfield, MO). Animals were kept in the indirect calorimetry system for 7d; d1 (0–24h) included acclimation to the new cages but no energy expenditure readings, d2 included baseline energy expenditure readings with vehicle injections, d3-7 included experimental energy expenditure readings and treatment injections. Treatment injections begin at t = 48h as indicated by the vertical dashed line and were performed every 24h as indicated by the arrows. O2 consumption and CO2 production were measured every 20 min to determine the respiratory quotient and energy expenditure using the Weir equation (EE=(3.94 x vO2) + (1.1 x vCO2)).

Assay [7] concerns DIO mice. The experiment in a line: Plasma parameters in DIO mice after chronic treatment. It is filed as in vivo, mouse. As to conditions: higher dose (2 nmol/kg), compared to vehicle.

*1 amine or outer side, *2 acyl side, *3 side chain or, on linkers, in order; H or OH if unused. Where a SMILES comes first, the peptide text is derived from it. Side-chain parts run from the residue outwards. [ ]: non-standard residue; d: D form. The star is where a group is joined. C20 diacid = O=C(O)CCCCCCCCCCCCCCCCCCC(=O)*; γGlu = O=C(O)[C@H](CCC(=O)[*:2])N[*:1]; εLys = N[C@@H](CCCCN[*:1])C(=O)[*:2]; Aib = CC(C)(N)C(=O)O

T1 sequence (P47871 26-477): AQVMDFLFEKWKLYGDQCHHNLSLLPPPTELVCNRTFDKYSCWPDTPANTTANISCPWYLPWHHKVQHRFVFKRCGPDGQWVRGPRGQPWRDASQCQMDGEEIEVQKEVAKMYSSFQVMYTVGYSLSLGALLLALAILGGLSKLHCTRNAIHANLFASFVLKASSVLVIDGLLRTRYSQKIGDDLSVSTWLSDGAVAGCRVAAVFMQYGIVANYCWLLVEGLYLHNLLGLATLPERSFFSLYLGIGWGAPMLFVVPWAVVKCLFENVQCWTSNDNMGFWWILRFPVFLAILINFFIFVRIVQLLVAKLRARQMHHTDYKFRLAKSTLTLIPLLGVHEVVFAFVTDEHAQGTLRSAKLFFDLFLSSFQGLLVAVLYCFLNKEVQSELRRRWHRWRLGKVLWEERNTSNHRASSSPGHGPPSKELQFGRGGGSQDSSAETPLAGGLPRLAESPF
T4 sequence (Q61606 27-485): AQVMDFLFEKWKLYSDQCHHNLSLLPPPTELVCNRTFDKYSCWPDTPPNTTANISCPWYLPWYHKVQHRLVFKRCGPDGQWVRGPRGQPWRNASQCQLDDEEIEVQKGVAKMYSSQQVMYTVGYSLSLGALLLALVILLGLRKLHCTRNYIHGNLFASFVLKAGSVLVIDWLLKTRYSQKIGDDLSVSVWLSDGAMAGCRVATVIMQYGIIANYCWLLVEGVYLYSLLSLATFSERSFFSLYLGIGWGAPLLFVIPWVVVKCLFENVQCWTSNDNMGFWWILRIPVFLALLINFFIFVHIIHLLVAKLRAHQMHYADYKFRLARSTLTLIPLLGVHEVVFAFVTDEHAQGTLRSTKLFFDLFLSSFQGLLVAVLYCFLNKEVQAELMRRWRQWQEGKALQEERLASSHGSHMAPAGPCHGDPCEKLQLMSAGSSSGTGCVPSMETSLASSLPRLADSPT

`CC[C@H](C)[C@H](NC(=O)[C@H](CO)NC(=O)[C@H](Cc1ccc(O)cc1)NC(=O)[C@H](CC(=O)O)NC(=O)[C@H](CO)NC(=O)[C@@H](NC(=O)[C@H](Cc1ccccc1)NC(=O)[C@@H](NC(=O)CNC(=O)[C@H](Cc1c[nH]cn1)NC(=O)C(C)(C)NC(=O)[C@@H](N)Cc1c[nH]cn1)[C@@H](C)O)[C@@H](C)O)C(=O)N[C@@H](Cc1ccc(O)cc1)C(=O)N[C@@H](CC(C)C)C(=O)N[C@@H](CCC(=O)O)C(=O)N[C@@H](CCCCNC(=O)[C@@H](N)CCCCNC(=O)[C@@H](N)CCCCNC(=O)CC[C@H](NC(=O)CCCCCCCCCCCCCCCCCCC(=O)O)C(=O)O)C(=O)N[C@@H](CCCCN)C(=O)N[C@@H](Cc1ccc(O)cc1)C(=O)N[C@@H](C)C(=O)NC(C)(C)C(=O)N[C@@H](CCC(=O)O)C(=O)N[C@@H](Cc1ccccc1)C(=O)N[C@H](C(=O)N[C@@H](CCC(N)=O)C(=O)N[C@@H](Cc1c[nH]c2ccccc12)C(=O)N[C@@H](CC(C)C)C(=O)N[C@@H](CC(C)C)C(=O)N[C@@H](CCC(=O)O)C(=O)NCC(=O)NCC(=O)N1CCC[C@H]1C(=O)N[C@@H](CO)C(=O)N[C@@H](CO)C(=O)NCC(=O)N[C@@H](C)C(=O)N1CCC[C@H]1C(=O)N1CCC[C@H]1C(=O)N1CCC[C@H]1C(=O)N[C@@H](CO)C(N)=O)C(C)C` [Compound 16] (H-H[Aib]HGTFTSDYSIYLEK([εLys-εLys-γGlu-C20 diacid])KYA[Aib]EFVQWLLEGGPSSGAPPPS-NH2): the “hGcg Receptor Relative Potency %” value in assay [1] was determined as 102%. For the same compound, the “mGLP-1 Receptor Relative Potency %” value in assay [2] came out at 142%. The “mGIP Receptor Relative Potency %” value in assay [3] came out at 265%. Also, the “mGcg Receptor Relative Potency %” value in assay [4] came to 78%. In addition, the “body weight loss at high dose versus first generation triagonist and SAR441255” value in assay [5] (2 nmol/kg) was “significantly superior body weight loss”. Also, the “weight lowering efficacy versus tirzepatide” value in assay [5] (3 nmol/kg daily and dose-escalated (1 to 30 nmol/kg) groups, s.c.) was “significantly more weight lowering efficacy”. In assay [5] (3 nmol/kg daily dose s.c., after 2 weeks of treatment), the Body weight reductions entry is reported as “greater than 30%”. Further, in assay [5] (1 or 2 nmol/kg), the “origin of weight loss (fat mass vs lean mass)” value was “predominantly derived from a reduction in fat mass, not lean mass”. Moreover, in assay [5] (n = 8 per group, up-titrated from 1 to 10 nmol/kg over 24 days, then 10 nmol/kg for up to 18 days), the “animals achieving body weight normalization (average weight of lean litter mates, 22.5 g)” value is on record as “Five of the eight”. Also, the “body weight loss in animals achieving body weight normalization” value in assay [5] (s.c. once daily, up-titrated from 1 to 10 nmol/kg over 24 days, then 10 nmol/kg for up to 18 days) was 55–60%. In addition, in assay [6], the energy expenditure entry was “increased energy expenditure over both vehicle and tirzepatide”; the locomotor activity entry is “not accompanied by a change in locomotor activity”. The insulin levels result in assay [7] was “decreased”.
